Assay results as given in US9346762B2, “Pyrazole derivatives and their use as LPAR5 antagonists” (SANOFI, priority 2012, dated 2016).

Columns and labels:
Format in all cases: cell-based
[1] = test system: human mast cell line HMC-1 (LPA receptor LPAR5); assay: FLIPR assay, intracellular Ca2+ release in human mast cell line HMC-1; conditions: HMC1, LPA-stimulated Ca2+ release, HMC-1 cells, compound added 10 minutes prior to LPA
Excerpt: (§1) B) Use of the Fluorometric Imaging Plate Reader (FLIPR) Assay for the Determination of Intracellular Ca^2+ Release in Human Mast Cell Line HMC-1 and the Murine Microglia cell line BV-2
(§2) The ability of the compounds of the formula Ito inhibit or bind the LPA receptor LPAR5 can be assessed by determining the intracellular Ca^2+ release in human or animal cells. For the analysis of activating potential of LPA and the inhibitory effects of compounds of the formula I two cell lines were used with high LPAR5 expression, the human mast cell line HMC-1 and the murine microglia cell line BV-2 (FIGS. 1 and 2). For the FLIPR assay using human mast cells in a 96-well-format, HMC-1 suspension cells from flask culture were harvested, resuspended and counted. 14×10^6 HMC-1 cells were transferred into a new 50 ml tube, centrifuged for 3 minutes at 540×g. The resulting cell pellet at the bottom of the tube was resuspended with 15 ml loading buffer (loading buffer contained HBSS buffer (pH 7.4), 0.1% BSA (bovine serum albumin), 2 μM FLUO-4 dye; HBSS buffer (pH 7.4) contained 1×HBSS, 20 mM HEPES, 0.01% Pluronic F-127, 2.5 mM Probenicid).
Cells in loading buffer were incubated for 45-60 minutes at 37° C. After incubation cells were centrifuged for 3 minutes at 540×g and resuspended with 21 ml of HBSS buffer (pH 7.4). Each well of a poly-D-lysine coated 96-well-plate was filled with 150 μl cell solution, an equivalent of 100 000 cells/well. The 96-well-plate was centifuged for 2 minutes at 100×g (without brake) prior a recovery time of 30 minutes at 37° C. After this procedure cells were stimulated with LPA (in HBSS pH 7.4 and 0.1% BSA) to determine the EC50 of LPA in HMC-1 cells. For the determination of the inhibitory effect of compounds of the formula I, test compounds were added to the cells in the 96-well-plate 10 minutes prior the addition of LPA. Results of the assay are expressed as % activation, and are calculated using maximum peak of activation (Amax). The IC50 data of the above described FLIPR assay using human mast cell line HMC-1 for exemplary compounds of the present invention are shown in Table 2. Adherent BV-2 cells were seeded onto poly-D-lysine coated 96-well-plates (100000 cells/well) the day before performing the FLIPR assay. The density of the cells in the 96-well-plate at the day of the FLIPR assay should be 90%. After aspiration of the culture media, BV-2 cells were incubated for 30 minutes at 37° C. with loading buffer and recovered in 150 μl HBSS buffer for 30 minutes at 37° C. After this procedure cells were stimulated with LPA (in HBSS pH 7.4 and 0.1% BSA) to determine the EC50 of LPA in BV-2 cells. For the determination of the inhibitory effect of compounds of the formula I, test compounds were added to the cells in the 96-well-plate 10 minutes prior the addition of LPA. The IC50 data of the above described FLIPR assay using the murine microglia cell line BV-2 for exemplary compounds of the present invention are shown in Table 3.

[2] = test system: washed human blood platelets (platelet LPA receptor LPAR5); assay: Aggregation assay for washed human blood platelets (LPA-induced); conditions: reduction of maximal LPA-induced aggregation, 5 min preincubation at 37° C.
Experimental: A) Aggregation Assay for Washed Human Blood Platelets (Thrombocytes)
Whole blood was collected from healthy volunteers using 3×20 ml syringes containing each 1/10 volume of buffered citrate. The anticoagulated whole blood was transferred into 50 ml polypropylene conical tubes (30 ml per tube). The tubes were centrifuged for 10 minutes at 150×g at room temperature without using the centrifuge brake. This procedure results in a lower phase of cellular components and a supernatant (upper phase) of platelet rich plasma (PRP). The PRP phase was collected from each tube and pooled for each donor. To avoid carry over of cellular components following first centrifugation, approximately 5 ml of PRP was left in the tube. The platelet concentration was determined using a ABX Micros 60 counter. The PRP phase was transferred to a new 50 ml tube. After 10 minutes standing at room temperature, 1 μl PGI2 (1 mM in Tris-HCl/pH 8.8) and 180 μl ACD/A were added per ml PRP. The PRP was then transferred to new 10 ml tube and centrifuged for 10 minutes at 500×g. After centrifugation a cellular pellet is visible at the bottom of the tube. The supernatant was carefully discarded and the cellular pellet, consisting of human blood platelets was then dissolved in 10 ml buffer T (buffer T composition: 145 mM NaCl, 5 mM KCl, 0.1 mM MgCl2×6 H2O, 15 mM HEPES, 5.5 mM glucose, pH 7.4). Platelet concentration in this solution was determined and buffer T was added to obtain a final concentration of 3.5×10^5 platelets per ml.
After 10 minutes at room temperature, 1 μl PGI2 per ml platelet solution was added and distributed into new 10 ml tubes. After a centrifugation step, 10 minutes at 500×g, supernatant was discarded and the platelets were resuspended in buffer T to a final concentration of 3.5×10^5 platelets per ml buffer T. Before use, platelet-containing buffer equilibrated for 30 minutes at room temperature. The human platelet aggregation assay was performed in single use cuvettes using the Platelet Aggregation Profiler® (PAP-4 or -8E, BIO/DATA Corporation). For a single experiment, 320 μl of platelet solution were transferred into an assay cuvette, 20 μl of calcium citrate solution (10 mM in H2O) and 20 μl of fibrinogen solution (20 mg/ml H2O) were added. The aggregation assay was performed in the assay cuvette at 37° C. and with 1.200 rpm stirring. To determine the EC50, eight assay cuvettes were loaded as described above with different concentrations of LPA. Aggregation was measured over 6 minutes at 37° C. with 1200 rpm (revolutions per minute) stirring. Results of the assay are expressed as % activation, and are calculated using maximum aggregation (Tmax) or area under curve (AUC) of the absorbance over 6 minutes. The inhibitory effect (IC50) of the test compounds was determined as the reduction of the maximal aggregation. Test compound was added prior starting the experiment with an incubation time of the test compound of 5 minutes at 37° C. with 1200 rpm stirring. The IC50 data of the above described platelet aggregation assay using human washed platelets for exemplary compounds of the present invention are shown in Table 1.

[3] = test system: murine microglia cell line BV-2 (LPA receptor LPAR5); assay: FLIPR assay, intracellular Ca2+ release in murine microglia cell line BV-2; conditions: Mus musculus; LPA-stimulated Ca2+ release, BV-2 cells, compound added 10 minutes prior to LPA
Excerpt: as §1, §2
Cells in loading buffer were incubated for 45-60 minutes at 37° C. […] Results of the assay are expressed as % activation, and are calculated using maximum peak of activation (Amax). […]

SMILES | IC50 [1] [µM] | IC50 [2] [µM] | IC50 [3] [µM]
Cc1c(COC(C)(C)C(=O)O)nn(-c2ccc(Cl)cc2Cl)c1-c1ccc(C(F)(F)F)cc1 [Example 4, 2-[1-(2,4-Dichloro-phenyl)-4-methyl-5-(4-trifluoromethyl-phenyl)-1H-pyrazol-3-ylmethoxy]-2-methyl-propionic acid] | 6.6 | – | –
Cc1c(COC(C)C(=O)NCc2ccc(C(=O)O)cc2)nn(-c2ccc(Cl)cc2Cl)c1-c1ccc(Cl)cc1 (stereo not shown) [Example 15, 4-({2-[5-(4-Chloro-phenyl)-1-(2,4-dichloro-phenyl)-4-methyl-1H-pyrazol-3-ylmethoxy]-propionylamino}-methyl)-benzoic acid] | 8.8 | 6.5 | –
Cc1c(COC(C(=O)Nc2ccc(C(=O)O)cc2)C(C)C)nn(-c2ccc(Cl)cc2Cl)c1-c1ccc(Cl)cc1 (stereo not shown) [Example 17, 4-{2-[5-(4-Chloro-phenyl)-1-(2,4-dichloro-phenyl)-4-methyl-1H-pyrazol-3-ylmethoxy]-3-methyl-butyrylamino}-benzoic acid] | 4.2 | 15.9 | –
Cc1c(COC(C)C(=O)Nc2ccc(C(=O)O)cc2)nn(-c2ccc(Cl)cc2)c1-c1ccc(C(F)(F)F)cc1 (stereo not shown) [Example 18, 4-{2-[1-(4-Chloro-phenyl)-4-methyl-5-(4-trifluoromethyl-phenyl)-1H-pyrazol-3-ylmethoxy]-propionylamino}-benzoic acid] | 3.8 | – | –
Cc1c(COC(C)(C)C(=O)NCc2ccc(C(=O)O)cc2)nn(-c2ccc(Cl)cc2)c1-c1ccc(C(F)(F)F)cc1 [Example 14, 4-({2-[1-(4-Chloro-phenyl)-4-methyl-5-(4-trifluoromethyl-phenyl)-1H-pyrazol-3-ylmethoxy]-2-methyl-propionylamino}-methyl)-benzoic acid] | 3.4 | – | –
CCC(OCc1nn(-c2ccc(Cl)cc2Cl)c(-c2ccc(Cl)cc2)c1C)C(=O)NCc1ccc(C(=O)O)cc1 (stereo not shown) [Example 12, 4-({2-[5-(4-Chloro-phenyl)-1-(2,4-dichloro-phenyl)-4-methyl-1H-pyrazol-3-ylmethoxy]-butyrylamino}-methyl)-benzoic acid] | 6.3 | 4.3 | –
Cc1c(COC(C)(C)C(=O)NCc2ccc(C(=O)O)cc2)nn(-c2ccc(Cl)cc2Cl)c1-c1ccc(Cl)cc1 [Example 9, 4-({2-[5-(4-Chloro-phenyl)-1-(2,4-dichloro-phenyl)-4-methyl-1H-pyrazol-3-ylmethoxy]-2-methyl-propionylamino}-methyl)-benzoic acid] | 1.3 | 2.9 | 1.8
Cc1c(COC(C)(C)C(=O)NCc2ccc(C(=O)O)cc2)nn(-c2ccccc2Cl)c1-c1ccc(C(F)(F)F)cc1 [Example 13, 4-({2-[1-(2-Chloro-phenyl)-4-methyl-5-(4-trifluoromethyl-phenyl)-1H-pyrazol-3-ylmethoxy]-2-methyl-propionylamino}-methyl)-benzoic acid] | 1.3 | – | –

More lines, in order of falling IC50 [1], values ahead:

IC50 [1] [µM] | IC50 [2] [µM] | IC50 [3] [µM] | SMILES
16 | – | – | CC(OCc1cn(-c2ccccc2)nc1-c1ccccc1)C(=O)Nc1ccc(C(=O)O)cc1 (stereo not shown) [Example 22, 4-[2-(1,3-Diphenyl-1H-pyrazol-4-ylmethoxy)-propionylamino]-benzoic acid]
11.4 | 4.7 | – | CCC(OCc1nn(-c2ccc(Cl)cc2Cl)c(-c2ccc(Cl)cc2)c1C)C(=O)O (stereo not shown) [Example 7, 2-[5-(4-Chloro-phenyl)-1-(2,4-dichloro-phenyl)-4-methyl-1H-pyrazol-3-ylmethoxy]-butyric acid]
8.8 | – | – | Cc1c(COC2(C(=O)O)CCCC2)nn(-c2ccc(Cl)cc2Cl)c1-c1ccc(Cl)cc1 [Example 3, 1-[5-(4-Chloro-phenyl)-1-(2,4-dichloro-phenyl)-4-methyl-1H-pyrazol-3-ylmethoxy]-cyclopentanecarboxylic acid]
8.6 | – | – | Cc1c(COCC(=O)NCc2ccc(C(=O)O)cc2)nn(-c2ccc(Cl)cc2Cl)c1-c1ccc(Cl)cc1 [Example 11, 4-({2-[5-(4-Chloro-phenyl)-1-(2,4-dichloro-phenyl)-4-methyl-1H-pyrazol-3-ylmethoxy]-acetylamino}-methyl)-benzoic acid]
8.3 | – | – | Cc1c(COC(C)(C)C(=O)O)nn(-c2ccc(Cl)cc2Cl)c1-c1ccc(Cl)cc1 [Example 1, 2-[5-(4-Chloro-phenyl)-1-(2,4-dichloro-phenyl)-4-methyl-1H-pyrazol-3-ylmethoxy]-2-methyl-propionic acid]
6.3 | 4.1 | – | Cc1c(COC(C)C(=O)O)nn(-c2ccc(Cl)cc2Cl)c1-c1ccc(Cl)cc1 (stereo not shown) [Example 8, 2-[5-(4-Chloro-phenyl)-1-(2,4-dichloro-phenyl)-4-methyl-1H-pyrazol-3-ylmethoxy]-propionic acid]
5.2 | – | – | Cc1c(COC(C)C(=O)Nc2ccc(C(=O)O)cc2)nn(-c2ccccc2Cl)c1-c1ccc(C(F)(F)F)cc1 (stereo not shown) [Example 20, 4-{2-[1-(2-Chloro-phenyl)-4-methyl-5-(4-trifluoromethyl-phenyl)-1H-pyrazol-3-ylmethoxy]-propionylamino}-benzoic acid]
4.1 | – | – | Cc1c(COC(C)C(=O)Nc2ccc(C(=O)O)cc2)nn(-c2ccc(Cl)cc2Cl)c1-c1ccc(C(F)(F)F)cc1 (stereo not shown) [Example 16, 4-{2-[1-(2,4-Dichloro-phenyl)-4-methyl-5-(4-trifluoromethyl-phenyl)-1H-pyrazol-3-ylmethoxy]-propionylamino}-benzoic acid]
0.03 | – | 0.2 | Cc1c(COC(C)(C)C(=O)NCc2ccc(C(=O)O)cc2)nn(-c2ccc(Cl)cc2Cl)c1-c1ccc(C(F)(F)F)cc1 [Example 10, 4-({2-[1-(2,4-Dichloro-phenyl)-4-methyl-5-(4-trifluoromethyl-phenyl)-1H-pyrazol-3-ylmethoxy]-2-methyl-propionylamino}-methyl)-benzoic acid]
